Holding throughout (assay type): in vivo, human
Assay [1] has as its system Humans. The experiment in a line: Prevention or delay of onset of atherosclerosis in humans (Example 23). As to conditions: 2 mg/kg to 50 mg/kg iv or im, one to six months. On the procedure: Individuals with documented risk factors for atherosclerosis and having high plasma cholesterol levels have a ultrasound analysis of the coronary (IVUS), carotid (IMT) or popliteal arteries to establish a baseline measurement. A portion of these individuals are […] administered a composition comprising a compound of the present invention in an acceptable carrier at a dose of 2 mg/kg to 50 mg/kg intravenously (iv) or intramuscular (im) I to 3 times per week over a period of approximately one to six months. The following compounds are administered to these individuals: 3,4-methylenedioxy phenyl acetate (INV 73); 3,4-methylenedioxy-6-nitrophenol (INV 74); 3,4-methylenedioxy-6-nitrophenyl acetate (INV 75); 3,4-Methylenedioxy 6-nitro phenyl lipoate (INV-7465) or 3,4-Methylenedioxy phenyl lipoate (INV-7065). The other individuals receive the carrier alone. A new ultrasound analysis at the end of the treatment period indicates higher levels of plaque in the vessels of individuals receiving the carrier.

A further assay deals with Patients. The experiment in a line: Treatment of patients with Type I and Type II diabetes (Example 24). To be noted: diabetic patients, oral, 12 months. From the text: Individuals with Type I and Type II diabetes are at risk for future cardiovascular events such as heart attacks, strokes and kidney disease. These individuals are on prevention treatments such as hypolipidemic drug therapy such as statins and anti-hypertensive agents such as ACE inhibitors. They are already receiving glycemia lowering strategies such as Insulin, PPARγ agents, Metformin or sulfonylurea therapy. They also will receive an acceptable dose of a composition comprising a compound of the present invention in an acceptable carrier orally chronically for durations in excess of 12 months. In one study, 3,4-Methylenedioxy 6-nitro phenyl lipoate (INV-7465) or 3,4-Methylenedioxy phenyl lipoate (INV-7065) are administered to these individuals. The patients undergo the following measurements: HbA1C to assess glycemic control, urinary microalbuminura, blood pressure and lipid measurements. At the end of 12 months of treatment, there is lowering of HbA1C and urinary microalbuminuria. There is an improvement in VLDL cholesterol and a decrease in triglycerides with any of these treatments [(3,4-methylenedioxy phenyl acetate (INV 73); 3,4-methylenedioxy-6-nitrophenol (INV 74); 3,4-methylenedioxy-6-nitrophenyl acetate (INV 75); 3,4-Methylenedioxy 6-nitro phenyl lipoate (INV-7465) or 3,4-Methylenedioxy phenyl lipoate (INV-7065)].

Another assay has as its system Patient. The experiment in a line: Treatment of a patient with recent myocardial infarction (Examples 16-18). As to conditions: oral, 1.0 to 100 mg/kg. On the procedure: (§1) A person presents with sudden chest pain typically radiating to the left arm or left side of the neck, shortness of breath, nausea and palpitation with vomiting and sweating. After being evaluated with an electrocardiogram (EKG, ECG), a chest X-ray and blood tests to detect elevations in cardiac markers (blood tests to detect heart muscle damage), they are diagnosed as suffering from myocardial infarction. The patient is administered therapy such as aspirin, a drug to reduce the tendency of platelet aggregation, such as clopidogrel bisulfate, a statin, IV heparin and taken to the catheterization laboratory where they undergo stenting of the coronary artery. They are allowed to recover for a 12-24 hour period. Oral therapy with 3,4-methylenedioxy-6-nitrophenyl acetate (INV 75) (1.0 to 100 mg/kg) is started and continued for at least a year. During the follow-up visit a month later, patient reports improvement in symptoms.
as §1, with “Oral therapy with 3,4-methylenedioxy-6-nitrophenyl acetate (INV 75) (1.0 to 100 mg/kg) is started and continued for at least a year. During the follow-up visit a month later, patient reports improvement in symptoms.” left out
A person presents with sudden chest pain typically radiating to the left arm or left side of the neck, shortness of breath, nausea and palpitation with vomiting and sweating. After being evaluated with an electrocardiogram (EKG, ECG), a chest X-ray and blood tests to detect elevations in cardiac markers (blood tests to detect heart muscle damage), they are diagnosed as suffering from myocardial infarction. […]

Assay [2] has as its system Humans. The experiment in a line: Treatment of established atherosclerosis in humans (Example 21). To be noted: oral, in excess of 12 months. From the text:
Individuals with established atherosclerosis with evidence of plaque in the coronary arteries, carotid arteries or peripheral arteries are known to be at risk for future cardiovascular events such as heart attacks and strokes. These individuals are on treatments such as statins and anti-hypertensive agents such as ACE inhibitors, diuretics or calcium channel blockers. They also will receive an acceptable dose of a composition comprising a compound of the present invention in an acceptable carrier orally and chronically for durations in excess of 12 months. In one study, 3,4-methylenedioxy phenyl acetate (INV 73); 3,4-methylenedioxy-6-nitrophenol (INV 74); 3,4-methylenedioxy-6-nitrophenyl acetate (INV 75); 3,4-Methylenedioxy 6-nitro phenyl lipoate (INV-7465) or 3,4-Methylenedioxy phenyl lipoate (INV-7065) are administered to these individuals. A repeat IVUS measurement is made at the end of the treatment period to assess the effect of the infusion of the composition on coronary atherosclerosis in the target vessel.

As for `CC(=O)Oc1cc2c(cc1[N+](=O)[O-])OCO2` [INV-75, 3,4-methylenedioxy-6-nitrophenyl acetate], the “preventing or reducing atherosclerosis (ultrasound, versus carrier alone)” value (“preventing or reducing atherosclerosis” below) in the assay on Humans [1] was “effective”. Also, in the assay with Patients, the VLDL cholesterol entry is recorded as “improvement” and the triglycerides entry is reported as “decrease”. For the same molecule, the “symptoms at follow-up visit a month later” value (“symptoms” below) in the assay with Patient is given as “improvement”. In the assay with Humans [2], the “plaque in the atherosclerotic coronary artery (IVUS)” value (from here on “plaque”) is recorded as “reduced”.

Regarding `O=C(CCCCC1CCSS1)Oc1ccc2c(c1)OCO2` (stereo not shown) [INV-7065, 3,4-Methylenedioxy phenyl lipoate], in the assay on Humans [1], the “preventing or reducing atherosclerosis” value was “effective”. In addition, in the assay with Patients, the HbA1C entry is recorded as “lowering”, the VLDL cholesterol entry is given as “improvement”, the triglycerides entry was “decrease” and the urinary microalbuminuria entry is recorded as “lowering”. Moreover, the “symptoms” value with Patient is “improvement”. Further, the “plaque” value in the assay on Humans [2] is listed as “reduced”.

For `O=C(CCCCC1CCSS1)Oc1cc2c(cc1[N+](=O)[O-])OCO2` (stereo not shown) [INV-7465, 3,4-Methylenedioxy 6-nitro phenyl lipoate], in the assay with Humans [1], the “preventing or reducing atherosclerosis” value was “effective”. In the assay on Patients, the HbA1C entry is “lowering”, the VLDL cholesterol entry is “improvement”, the triglycerides entry was “decrease” and the urinary microalbuminuria result is given as “lowering”. Moreover, in the assay with Patient, the “symptoms” value was “improvement”. Besides, the “plaque” value in the assay on Humans [2] is “reduced”.

The values are drawn from US8198317B2, “Methylenedioxy phenolic compounds and their use to treat disease” (The Ohio State University Research Foundation, priority 2008, dated 2012).
